Tests used:
NBD1 = target: T1, NBD1 (Homo sapiens, UniProt P13569); experiment: Aggregation analysis using differential static light scattering (DSLS), thermal stability of NBD1 (ΔTagg); format: binding; details: ΔTagg versus DMSO control, NBD1 0.2 mg/ml
T1 construct: Purified recombinant NBD1 was produced using previously described methods; made in house
Procedure, shortened: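 Differential static light scattering read from 25° C. to 70° C. every 0.5° C., ramp 1° C./min, on recombinant NBD1 (0.2 mg/ml; Tris/NaCl/MgCl2 buffer with 2 mM ATP, 2 mM DTT, pH 7.6, 1% glycerol) plus compound. Reported ΔTagg subtracts averaged DMSO Tagg from inflection-point Tagg; categories A ≤5, B >5-10, C >10-25° C.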

CFTR = target: T2, CFTR (Homo sapiens, UniProt P13569, DEL508-508); experiment: TECC24 AUC fold over DMSO @10 μM, CFTR-mediated transepithelial chloride transport in CF-HBE cells; format: cell-based; details: test agent AUC divided by DMSO vehicle AUC, primary CF-HBE cells, ΔF508 homozygous donor, 48 hours incubation
T2 construct: Primary human bronchial epithelial cells from a ΔF508 homozygous CF donor; host or cells: primary human bronchial epithelial cells (CF-HBE), ΔF508 homozygous donor
T2 sequence (P13569 with tags, fused parts or gaps DEL508-508): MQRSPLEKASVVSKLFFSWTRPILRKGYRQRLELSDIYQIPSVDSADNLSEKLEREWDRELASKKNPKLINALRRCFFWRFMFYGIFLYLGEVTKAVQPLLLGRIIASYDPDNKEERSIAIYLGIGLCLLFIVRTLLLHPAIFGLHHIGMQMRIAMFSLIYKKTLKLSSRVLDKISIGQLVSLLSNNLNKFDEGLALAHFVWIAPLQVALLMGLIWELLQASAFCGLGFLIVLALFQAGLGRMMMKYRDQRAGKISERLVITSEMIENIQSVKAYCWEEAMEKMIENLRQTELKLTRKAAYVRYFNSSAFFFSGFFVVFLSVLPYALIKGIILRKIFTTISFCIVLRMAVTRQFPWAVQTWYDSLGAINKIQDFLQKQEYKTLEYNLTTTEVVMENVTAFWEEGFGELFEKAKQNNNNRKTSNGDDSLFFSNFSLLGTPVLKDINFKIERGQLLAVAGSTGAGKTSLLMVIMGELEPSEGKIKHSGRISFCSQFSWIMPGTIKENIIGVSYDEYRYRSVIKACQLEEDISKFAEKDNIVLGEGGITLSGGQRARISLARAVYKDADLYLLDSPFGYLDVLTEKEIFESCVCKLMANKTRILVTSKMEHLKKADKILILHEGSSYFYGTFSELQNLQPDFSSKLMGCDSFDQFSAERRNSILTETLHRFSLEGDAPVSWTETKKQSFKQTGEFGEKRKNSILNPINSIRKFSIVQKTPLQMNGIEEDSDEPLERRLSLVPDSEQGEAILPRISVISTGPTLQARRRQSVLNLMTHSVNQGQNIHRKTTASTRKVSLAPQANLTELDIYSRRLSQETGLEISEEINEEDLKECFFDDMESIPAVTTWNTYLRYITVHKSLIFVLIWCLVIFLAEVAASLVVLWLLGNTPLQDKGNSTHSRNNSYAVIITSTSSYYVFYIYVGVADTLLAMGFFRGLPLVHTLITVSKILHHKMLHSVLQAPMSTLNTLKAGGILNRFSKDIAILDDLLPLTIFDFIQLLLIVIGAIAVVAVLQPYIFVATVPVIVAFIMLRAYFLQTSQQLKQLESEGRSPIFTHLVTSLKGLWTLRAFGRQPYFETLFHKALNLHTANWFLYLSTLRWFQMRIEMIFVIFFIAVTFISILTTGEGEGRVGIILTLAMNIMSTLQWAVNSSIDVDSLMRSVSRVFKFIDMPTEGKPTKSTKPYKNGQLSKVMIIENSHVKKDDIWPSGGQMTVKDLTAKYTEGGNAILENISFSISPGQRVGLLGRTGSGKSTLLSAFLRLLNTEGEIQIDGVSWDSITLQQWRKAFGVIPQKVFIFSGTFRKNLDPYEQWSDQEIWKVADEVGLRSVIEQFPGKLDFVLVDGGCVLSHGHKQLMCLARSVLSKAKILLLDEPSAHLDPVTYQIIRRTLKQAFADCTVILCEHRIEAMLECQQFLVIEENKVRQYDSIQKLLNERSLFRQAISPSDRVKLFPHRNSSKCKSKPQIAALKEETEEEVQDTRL
Procedure, shortened: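 Value is ratio of test-agent to DMSO AUC of equivalent transepithelial Cl− current, integrated from forskolin (10 μM) stimulation to CFTR inhibitor-172 (20 μM) block, with benzamil 10 μM present. CF-HBE (ΔF508/ΔF508) cultures had 48 h compound exposure at 10 μM, 36.5° C before recording.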

T1 sequence (P13569 423-646 limits assumed): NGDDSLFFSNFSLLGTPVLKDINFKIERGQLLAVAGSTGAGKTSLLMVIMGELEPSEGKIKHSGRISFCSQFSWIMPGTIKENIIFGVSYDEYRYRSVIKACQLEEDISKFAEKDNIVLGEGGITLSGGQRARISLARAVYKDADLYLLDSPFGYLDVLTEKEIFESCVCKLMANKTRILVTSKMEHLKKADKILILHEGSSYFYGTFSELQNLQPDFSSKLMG

SMILES | DSLS 3D (100 μM ΔT) (NBD1) | TECC (AUC, 10 μM) (CFTR)
Cn1nc2nc1-c1cc(ccn1)[S+]([O-])c1c(F)cc3[nH]ccc3c1CCS(=O)(=O)CC(C)(C)CCC[C@]2(C)c1cccc(CC2(C(=O)O)CC2)c1 (single isomer, unassigned) [Compound 271] | C (a value greater than 10 °C and less than or equal to 25 °C is marked “C”) | C (a value between 20 and 80 is marked “C”)
Cn1nc2nc1-c1cc(ccn1)[S+]([O-])c1c(F)c(F)c3[nH]ccc3c1CCS(=O)(=O)CC(C)(C)CCC[C@]2(C)c1cccc(CC(C)(C)C(=O)O)c1 (single isomer, unassigned) [Compound 274] | C (a value greater than 10 °C and less than or equal to 25 °C is marked “C”) | C (a value between 20 and 80 is marked “C”)
Cn1nc2nc1-c1cc(ccn1)[S+]([O-])c1c(F)c(F)c3[nH]ccc3c1CCS(=O)(=O)CC(C)(C)CCC[C@]2(C)c1cccc(CCC(=O)O)c1 (single isomer, unassigned) [Compound 281] | C (a value greater than 10 °C and less than or equal to 25 °C is marked “C”) | C (a value between 20 and 80 is marked “C”)
COCC(Cc1cccc([C@@]2(C)CCCC(C)(C)CS(=O)(=O)CCc3c(c(F)cc4[nH]ccc34)Oc3ccnc(c3)-c3nc2nn3C)c1)C(=O)O (single isomer, unassigned) [Compound 284] | C (a value greater than 10 °C and less than or equal to 25 °C is marked “C”) | C (a value between 20 and 80 is marked “C”)
COCC(Cc1cccc([C@@]2(C)CCCC(C)(C)CS(=O)(=O)CCc3c(c(F)cc4[nH]ccc34)Oc3ccnc(c3)-c3nc2nn3C)c1)C(=O)O (single isomer, unassigned) [Compound 285] | C (a value greater than 10 °C and less than or equal to 25 °C is marked “C”) | C (a value between 20 and 80 is marked “C”)
Cn1nc2nc1-c1cc(ccn1)[S+]([O-])c1c(F)c(F)c3[nH]ccc3c1CCS(=O)(=O)CC(C)(C)CCC[C@]2(C)c1cccc(CC(O)CO)c1 (stereo in doubt) [Compound 292, (2R)-3-[3-[(6R)-21,22-difluoro-3,6,10,10-tetramethyl-12,12,24-trioxo-12λ6,24λ4-dithia-3,4,19,28,30-pentazapentacyclo[23.3.1.12,5.015,23.016,20]triaconta-1(29),2(30),4,15,17,20,22,25,27-nonaen-6-yl]phenyl]propane-1,2-diol] | C (a value greater than 10 °C and less than or equal to 25 °C is marked “C”) | C (a value between 20 and 80 is marked “C”)
Cn1nc2nc1-c1cc(ccc1F)Oc1c(F)cc3[nH]ccc3c1CCS(=O)(=O)CC(C)(C)CCCC2(C)c1cccc(CC(=O)O)c1 (stereo not shown) [Compound 3, 2-[3-(22,28-Difluoro-3,6,10,10-tetramethyl-12,12-dioxo-24-oxa-12λ^6-thia-3,4,19,30-tetrazapentacyclo[23.3.1.1^2,5.0^15,23.0^16,20]triaconta-1(29),2(30),4,15,17,20,22,25,27-nonaen-6-yl)phenyl]acetic Acid] | C (a value greater than 10 °C and less than or equal to 25 °C is marked “C”) | B (a value between 12-20 is marked “B”)
Cn1nc2nc1-c1cc(ccc1F)Oc1c(F)cc3[nH]ccc3c1CCS(=O)(=O)CC(C)(C)CCCC2(C)c1cccc(CC2(C(=O)O)CC2)c1 (stereo not shown) [Compound 14, 1-[[3-(22,28-difluoro-3,6,10,10-tetramethyl-12,12-dioxo-24-oxa-12lambda6-thia-3,4,19,30-tetrazapentacyclo[23.3.1.12,5.015,23.016,20]triaconta-1(29),2(30),4,15,17,20,22,25,27-nonaen-6-yl)phenyl]methyl]cyclopropanecarboxylic Acid] | C (a value greater than 10 °C and less than or equal to 25 °C is marked “C”) | B (a value between 12-20 is marked “B”)
CC(Oc1cccc(C2(C)CCCC(C)(C)CS(=O)(=O)CCc3c(c(F)cc4[nH]ccc34)Oc3ccc(F)c(c3)-c3nc2nn3C)c1)C(=O)O (stereo not shown) [Compound 19B, 2-[3-[22,28-difluoro-3,6,10,10-tetramethyl-12,12-dioxo-24-oxa-12 6-thia-3,4,19,30-tetrazapentacyclo[23.3.1.12,5.015,23.016,20]triaconta-1(29),2(30),4,15,17,20,22,25,27-nonaen-6-yl]phenoxy]propanoic Acid] | A (an ΔTagg value less than or equal to 5 °C is marked “A”) | A (a TECC value less than 12 is marked “A”)
CC1(C)CCCC(c2cccc(CCC(=O)O)c2)n2ccc(n2)-c2cccc(c2)Oc2c(F)cc3[nH]ccc3c2CCS(=O)(=O)C1 (stereo not shown) [Compound 23, 3-[3-(22-Fluoro-10,10-dimethyl-12,12-dioxo-24-oxa-12lambda6-thia-5,19,30-triazapentacyclo[23.3.1.12,5.015,23.016,20]triaconta-1(29),2(30),3,15,17,20,22,25,27-nonaen-6-yl)phenyl]propanoic Acid] | C (a value greater than 10 °C and less than or equal to 25 °C is marked “C”) | B (a value between 12-20 is marked “B”)
CC(Cc1cccc(C2CCCC(C)(C)CS(=O)(=O)CCc3c(c(F)cc4[nH]ccc34)Oc3cccc(c3)-c3ccn2n3)c1)C(=O)O (stereo not shown) [Compound 25, 3-[3-(22-Fluoro-10,10-dimethyl-12,12-dioxo-24-oxa-12lambda6-thia-5,19,30-triazapentacyclo[23.3.1.12,5.015,23.016,20]triaconta-1(29),2(30),3,15,17,20,22,25,27-nonaen-6-yl)phenyl]-2-methyl-propanoic Acid] | C (a value greater than 10 °C and less than or equal to 25 °C is marked “C”) | A (a TECC value less than 12 is marked “A”)
CC1(C)CCCC(c2cccc(CC(=O)O)c2)n2ccc(n2)-c2cc(ccc2F)Oc2c(F)cc3[nH]ccc3c2CCS(=O)(=O)C1 (stereo not shown) [Compound 26, 2-[3-(22,28-Difluoro-10,10-dimethyl-12,12-dioxo-24-oxa-12lambda6-thia-5,19,30-triazapentacyclo[23.3.1.12,5.015,23.016,20]triaconta-1(29),2(30),3,15,17,20,22,25,27-nonaen-6-yl)phenyl]acetic Acid] | C (a value greater than 10 °C and less than or equal to 25 °C is marked “C”) | C (a value between 20 and 80 is marked “C”)
CC1(c2cccc(CCC(=O)O)c2)CCCCCS(=O)(=O)CCc2c(c(F)cc3[nH]ccc23)Oc2ccc(F)c(c2)-c2ncc1[nH]2 (stereo not shown) [Compound 37, 3-[3-(22,28-Difluoro-6-methyl-12,12-dioxo-24-oxa-12λ6-thia-3,19,30-triazapentacyclo[23.3.1.12,5.015,23.016,20]triaconta-1(29),2,4,15,17,20,22,25,27-nonaen-6-yl)phenyl]propanoic Acid] | C (a value greater than 10 °C and less than or equal to 25 °C is marked “C”) | A (a TECC value less than 12 is marked “A”)
O=C(O)CCc1cccc(C2CCS(=O)(=O)CCc3cn(nn3)Cc3c(c(F)cc4[nH]ccc34)Oc3ccc(F)c(c3)-c3ncc2[nH]3)c1F (stereo not shown) [Compound 40, 3-[3-(24,30-Difluoro-9,9-dioxo-26-oxa-9lambda6-thia-3,13,14,15,21,33-hexazahexacyclo[25.3.1.12,5.112,15.017,25.018,22]tritriaconta-1(31),2,4,12(32),13,17,19,22,24,27,29-undecaen-6-yl)-2-fluoro-phenyl]propanoic Acid] | C (a value greater than 10 °C and less than or equal to 25 °C is marked “C”) | B (a value between 12-20 is marked “B”)
O=S1(=O)CCc2cn(nn2)Cc2c(c(F)cc3[nH]ccc23)Oc2ccc(F)c(c2)-c2ncc([nH]2)C(c2ccccc2F)CC1 (stereo not shown) [Compound 41, 24,30-Difluoro-6-(2-fluorophenyl)-26-oxa-9λ6-thia-3,13,14,15,21,33-hexazahexacyclo[25.3.1.12,5.112,15.017,25.018,22]tritriaconta-1(31),2,4,12(32),13,17,19,22,24,27,29-undecaene 9,9-dioxide] | C (a value greater than 10 °C and less than or equal to 25 °C is marked “C”) | A (a TECC value less than 12 is marked “A”)
CC1CCC(C)(c2cccc(CCC(=O)O)c2)c2cnc([nH]2)-c2cc(ccc2F)Oc2c(F)cc3[nH]ccc3c2CCS(=O)(=O)CC1 (stereo not shown) [Compound 42, 3-[3-(22,28-Difluoro-6,9-dimethyl-12,12-dioxo-24-oxa-12lambda6-thia-3,19,30-triazapentacyclo[23.3.1.12,5.015,23.016,20]triaconta-1(29),2,4,15,17,20,22,25,27-nonaen-6-yl)phenyl]propanoic Acid] | C (a value greater than 10 °C and less than or equal to 25 °C is marked “C”) | B (a value between 12-20 is marked “B”)
CC1(C)CCCC(C)(c2cccc(CCC(=O)O)c2)c2coc(n2)-c2cc(ccc2F)Oc2c(F)cc3[nH]ccc3c2CCS(=O)(=O)C1 (stereo not shown) [Compound 44, 3-[3-(22,28-Difluoro-6,10,10-trimethyl-12,12-dioxo-3,24-dioxa-12lambda6-thia-19,30-diazapentacyclo[23.3.1.12,5.015,23.016,20]triaconta-1(29),2(30),4,15,17,20,22,25,27-nonaen-6-yl)phenyl]propanoic Acid] | C (a value greater than 10 °C and less than or equal to 25 °C is marked “C”) | A (a TECC value less than 12 is marked “A”)

Source: patent US12649750B2, “Macrocyclic compounds, compositions, and methods of using thereof” (Sionna Therapeutics Inc., priority 2022, dated 2026)
